Where two headings read alike, the source gives them in different places.
Legend:
Factor XIa = Factor XIa (Homo sapiens (Human), UniProt P03951); assay: Factor XIa inhibition assay (FLINT) utilizing a fluorophore-quencher pair peptide substrate; format: biochemical; details: 30 min preincubation, kinetic reads over 30 min, read-out: FXIa Kin Inh IC50
Summary of the method: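 FXIa ([…]) preincubated 30 min with compound (11-point 3-fold dilution, top 100 nM, 2% DMSO), then 15 μM quenched FXI Arg146-based peptide added; Tris pH 7.5, CaCl2, BSA, CHAPS. Fluorescence 485/520 nm read kinetically every 5 min over 30 min at RT; IC50 by 4-parameter fit.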

human plasma kallikrein = human plasma kallikrein (Homo sapiens (Human), UniProt P03952); assay: Kallikrein inhibition assay (FLINT) utilizing a quenched AMC peptide substrate; format: biochemical; details: 30 min preincubation, read-out: Kallikrein Kin Inh IC50
Summary of the method: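 Fluorogenic Z-Gly-Pro-Arg-AMC cleavage (50 μM substrate, 2 nM kallikrein, Tris pH 7.5, CaCl2, BSA, CHAPS, 2% DMSO) read kinetically at 340/440 nm for 30 min after 30-min compound pre-incubation. Compounds in 11-point 3-fold series from 1 μM; percent inhibition fitted to four-parameter equation for IC50.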

[1] = 5Fam-[…]-K5Tamra substrate 15 μM
[2] = kinetic reads over 30 min, Z-Gly-Pro-Arg-AMC substrate 50 μM
[3] = 5Fam-KLTRAETV-K5Tamra substrate 15 μM

Chain of Factor XIa (P03951 388-625): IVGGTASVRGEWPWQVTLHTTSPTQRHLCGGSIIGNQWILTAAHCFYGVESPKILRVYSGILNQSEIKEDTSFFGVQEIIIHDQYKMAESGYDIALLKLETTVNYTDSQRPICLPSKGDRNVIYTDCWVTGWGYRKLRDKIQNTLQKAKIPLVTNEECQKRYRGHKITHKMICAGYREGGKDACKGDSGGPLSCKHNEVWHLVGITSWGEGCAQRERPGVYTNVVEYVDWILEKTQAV
Chain of Factor XIa (P03951 19-387 partner): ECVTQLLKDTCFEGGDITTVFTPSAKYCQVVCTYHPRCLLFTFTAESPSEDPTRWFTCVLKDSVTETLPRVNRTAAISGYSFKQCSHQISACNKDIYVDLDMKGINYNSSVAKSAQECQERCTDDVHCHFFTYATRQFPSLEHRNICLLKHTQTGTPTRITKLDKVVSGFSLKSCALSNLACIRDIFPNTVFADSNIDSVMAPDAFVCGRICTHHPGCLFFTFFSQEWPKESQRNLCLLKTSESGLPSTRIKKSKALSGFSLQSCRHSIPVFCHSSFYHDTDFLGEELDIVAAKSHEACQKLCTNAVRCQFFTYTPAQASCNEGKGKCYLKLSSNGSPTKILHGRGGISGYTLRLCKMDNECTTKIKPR
Chain of human plasma kallikrein (P03952 391-638): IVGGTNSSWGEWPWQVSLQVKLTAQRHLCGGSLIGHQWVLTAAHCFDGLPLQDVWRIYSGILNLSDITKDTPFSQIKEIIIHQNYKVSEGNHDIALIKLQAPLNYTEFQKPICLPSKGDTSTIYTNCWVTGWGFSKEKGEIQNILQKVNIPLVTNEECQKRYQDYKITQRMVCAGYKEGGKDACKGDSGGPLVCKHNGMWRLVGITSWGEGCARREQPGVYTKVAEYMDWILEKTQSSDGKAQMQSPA
Chain of human plasma kallikrein (P03952 20-390 partner): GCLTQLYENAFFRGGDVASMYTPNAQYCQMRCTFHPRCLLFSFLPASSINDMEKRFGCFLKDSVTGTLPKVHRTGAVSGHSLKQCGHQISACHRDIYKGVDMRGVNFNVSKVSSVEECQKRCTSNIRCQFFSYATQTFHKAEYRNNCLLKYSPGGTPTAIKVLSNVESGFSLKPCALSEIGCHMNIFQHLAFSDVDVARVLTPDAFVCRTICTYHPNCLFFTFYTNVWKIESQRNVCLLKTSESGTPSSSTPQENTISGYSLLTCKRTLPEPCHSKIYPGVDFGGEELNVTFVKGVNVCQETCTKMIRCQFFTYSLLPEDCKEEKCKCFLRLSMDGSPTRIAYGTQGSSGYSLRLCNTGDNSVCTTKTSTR

| SMILES | IC50 (Factor XIa; [1]) [nM] | IC50 (human plasma kallikrein; [2]) [µM] | IC50 (Factor XIa; [3]) [nM] | IC50 (human plasma kallikrein; μM, kinetic reads) [µM] |
| --- | --- | --- | --- | --- |
| O=C(O)c1nccc(-c2[nH]c([C@@H]3CC[C@@H]4CC(c5c(-n6cc(C(F)(F)F)nn6)ccc(Cl)c5F)=CC(=O)N43)nc2F)c1F [Example 34, 4-(2-((3S,8aR)-7-(3-Chloro-2-fluoro-6-(4-(trifluoromethyl)-1H-1,2,3-triazol-1-yl)phenyl)-5-oxo-1,2,3,5,8,8a-hexahydroindolizin-3-yl)-4-fluoro-1H-imidazol-5-yl)-3-fluoropicolinic acid] | – | 0.0328 | 0.6 | – |
| O=C1C=C(c2c(-n3cnnn3)ccc(Cl)c2F)C[C@H]2CC[C@H](c3ncc(-c4c[nH]nc4C(F)(F)F)[nH]3)N12 (single isomer, unassigned) [Example 239, (3*R,8a*R)-7-(3-Chloro-2-fluoro-6-(1H-tetrazol-1-yl)phenyl)-3-(5-(3-(trifluoromethyl)-1H-pyrazol-4-yl)-1H-imidazol-2-yl)-2,3,8,8a-tetrahydroindolizin-5(1H)-one] | – | 0.0159 | 1.5 | – |
| C[C@H]1C[C@@H](c2ncc(-c3ccc(N)nc3F)[nH]2)N2C(=O)C=C(c3c(-n4cnnn4)ccc(Cl)c3F)C[C@H]12 (relative stereo) [Example 344, (1*S,3S,8a*R)-3-(5-(6-Amino-2-fluoropyridin-3-yl)-1H-imidazol-2-yl)-7-(3-chloro-2-fluoro-6-(1H-tetrazol-1-yl)phenyl)-1-methyl-2,3,8,8a-tetrahydroindolizin-5(1H)-one] | 202 | – | – | 1.3 |
| COCCNC(=O)c1nccc(-c2cnc([C@@H]3CC[C@@H]4CC(c5c(-n6cnnn6)ccc(Cl)c5F)=CC(=O)N43)[nH]2)c1F [Example 180, 4-(2-((3S,8aR)-7-(3-chloro-2-fluoro-6-(1H-tetrazol-1-yl)phenyl)-5-oxo-1,2,3,5,8,8a-hexahydroindolizin-3-yl)-1H-imidazol-5-yl)-3-fluoro-N-(2-methoxyethyl)picolinamide] | – | 0.0332 | 8.6 | – |
| N#CC1(c2nccc(-c3cnc([C@@H]4CC[C@@H]5CC(c6c(-n7cnnn7)ccc(Cl)c6F)=CC(=O)N54)[nH]3)c2F)COC1 (single isomer, unassigned) [Example 138, 3-(4-(2-((3S,8aR*)-7-(3-chloro-2-fluoro-6-(1H-tetrazol-1-yl)phenyl)-5-oxo-1,2,3,5,8,8a-hexahydroindolizin-3-yl)-1H-imidazol-5-yl)-3-fluoropyridin-2-yl)oxetane-3-carbonitrile] | – | 0.138 | 32 | – |
| Nc1ccc(-c2cnc([C@@H]3CC[C@@H]4C(=O)N(c5cc(Cl)ccc5-n5cnnn5)CC(=O)N43)[nH]2)c(F)n1 (single isomer, unassigned) [Example 360, (6S*,8aR*)-6-(5-(6-amino-2-fluoropyridin-3-yl)-1H-imidazol-2-yl)-2-(5-chloro-2-(1H-tetrazol-1-yl)phenyl)hexahydropyrrolo[1,2-a]pyrazine-1,4-dione] | 12 | 0.11 | – | – |

The remaining lines, values ahead:

| IC50 (Factor XIa; [1]) [nM] | IC50 (human plasma kallikrein; [2]) [µM] | IC50 (Factor XIa; [3]) [nM] | IC50 (human plasma kallikrein; μM, kinetic reads) [µM] | SMILES |
| --- | --- | --- | --- | --- |
| 11 | 0.0069 | – | – | O=C1C=C(c2c(-n3cnnn3)ccc(Cl)c2F)C[C@H]2CC[C@H](c3ncc(-c4ccnc(N5CCC5)c4F)[nH]3)N12 (single isomer, unassigned) [Example 110, (3*R,8aR)-3-(5-(2-(azetidin-1-yl)-3-fluoropyridin-4-yl)-1H-imidazol-2-yl)-7-(3-chloro-2-fluoro-6-(1H-tetrazol-1-yl)phenyl)-2,3,8,8a-tetrahydroindolizin-5(1H)-one] |
| – | 0.0078 | 17.2 | – | O=C1C=C(c2c(-n3cnnn3)ccc(Cl)c2F)C[C@H]2CC[C@H](c3ncc(-c4ccnc(N5CCC[C@H](O)C5)c4F)[nH]3)N12 [Example 188, (3R,8aR)-7-(3-chloro-2-fluoro-6-(1H-tetrazol-1-yl)phenyl)-3-(5-(3-fluoro-2-((S)-3-hydroxypiperidin-1-yl)pyridin-4-yl)-1H-imidazol-2-yl)-2,3,8,8a-tetrahydroindolizin-5(1H)-one] |
| 0.5 | 0.0118 | – | – | CC(=O)Nc1ccccc1-c1cnc([C@@H]2CC[C@H]3CC(c4c(-n5cnnn5)ccc(Cl)c4F)=CC(=O)N32)[nH]1 (relative stereo) [Example 306, N-(2-(24(3S,8aS*)-7-(3-Chloro-2-fluoro-6-(1H-tetrazol-1-yl)phenyl)-5-oxo-1,2,3,5,8,8a-hexahydroindolizin-3-yl)-1H-imidazol-4-yl)phenyl)acetamide] |
| 0.4 | 0.0054 | – | – | [2H]c1cc(Cl)c(F)c(C2=CC(=O)N3[C@H](CC[C@H]3c3nc([2H])c(-c4ccc(N)nc4F)[nH]3)C2)c1-n1cnnn1 [Example 129, (3S,8aR)-3-(5-(6-amino-2-fluoropyridin-3-yl)-1H-imidazol-2-yl-4-d)-7-(3-chloro-2-fluoro-6-(1H-tetrazol-1-yl)phenyl-5-d)-2,3,8,8a-tetrahydroindolizin-5(1H)-one] |
